Molecules are shown by their SMILES.

This series addresses CYP2C9 (Homo sapiens (Human), UniProt P11712). Description: CYP2C9 inhibition studies. It is filed as in vitro ADME. As to conditions: inhibition at 5 μM reported instead of 15 μM (precipitation). On the procedure: Assessment of certain in vitro ADME (absorption, distribution, metabolism, and excretion) parameters for certain compounds of the invention was conducted by BioFocus (Saffron Walden, UK).

Sequence of CYP2C9 (P11712 whole entry): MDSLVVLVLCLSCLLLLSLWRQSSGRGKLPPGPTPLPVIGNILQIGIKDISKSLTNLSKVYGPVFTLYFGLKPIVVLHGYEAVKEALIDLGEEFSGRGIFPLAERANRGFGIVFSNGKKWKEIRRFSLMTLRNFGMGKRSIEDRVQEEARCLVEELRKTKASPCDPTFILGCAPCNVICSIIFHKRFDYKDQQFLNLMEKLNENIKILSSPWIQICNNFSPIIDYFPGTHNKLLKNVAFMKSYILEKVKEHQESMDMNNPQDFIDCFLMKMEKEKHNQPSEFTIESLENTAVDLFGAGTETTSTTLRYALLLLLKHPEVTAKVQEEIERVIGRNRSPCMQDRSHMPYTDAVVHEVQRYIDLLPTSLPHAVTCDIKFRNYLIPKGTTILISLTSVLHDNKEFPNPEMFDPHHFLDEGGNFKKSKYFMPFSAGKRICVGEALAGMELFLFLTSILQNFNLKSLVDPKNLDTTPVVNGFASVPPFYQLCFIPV

Consider `C#CC(C)(C)c1cc(NC(=O)Nc2ccc(Oc3ccnc(Nc4cc(C)c5[nH]ncc5c4)n3)c3ccccc23)n(-c2ccc(C)cc2)n1` [Ref Cpd A], for which the “% Inh at 5 μM” value was 31^[†] % (CYP2C9, 0 min preincubation) and 66^[†] % (CYP2C9, 30 min preincubation).

The values are drawn from patent publication US10435361B2, “Kinase inhibitors” (Topivert Pharma Limited, priority 2013, dated 2019).
